Reference: patent US20140378496A1, “OPIOID […] 3-HYDROXYA[…] TREATING PAIN” (SLX PHARMACEUTICALS, LLC, priority 2011, published 2014)

Test system: visceral pain model in mice
Experiment: Acetic acid writhing protocol (abdominal contortion test), visceral pain model in mice
Type: in vivo, male Swiss Webster mice
Settings: 50-400 mg/kg PO; lowest dose (50 mpk) removed as apparent outlier
Method: In order to test the analgesic activity of the combination of an opioid (hydrocodone) and 3-hydroxyacetanilide, both compounds were tested separately and in combination in a visceral pain model in mice.
Experimental animals: One hundred fifty-five 4-week old, male Swiss Webster mice (stock number 024) were purchased from Charles River Laboratories (Portage, Mich.). The study animals were allowed an acclimation period of 1-2 weeks prior to dose initiation. The mice were housed 4-6 per cage and maintained in the Innovive caging system (San Diego, Calif.) upon arrival at. In accordance with the Guide for Care and Use of Laboratory Animals (Eighth Edition), mouse rooms were maintained at temperatures of 66-75 degrees Fahrenheit and relative humidity between 30% and 70%. Cages were monitored daily to ensure the Innovive system maintained 50 air changes per hour and positive pressure. The rooms were lit by artificial light for 12 hours each day (7:00 AM -7:00 PM). […]
Animals were allowed to acclimate to the testing room for a minimum of 1 hour prior to the experiment. […] The number of writhes over a 5 min duration were counted (5-10 and 15-20 min post-dose) starting 5 min after acetic acid administration. […]

CC(=O)Nc1cccc(O)c1 [3-hydroxyacetanilide]
shape of dose response curve (% AA vs dose): bell-shaped
